{"source": "patent US11103488B2", "about": "“Methods of treating autoimmune, respiratory and inflammatory disorders by inhalation of roflumilast N-oxide” (Incozen Therapeutics Pvt. Ltd., priority 2013, dated 2021)", "key": {"macrophage infiltration": {"test_system": "macrophage infiltration", "test": "Acute cigarette smoke induced cell infiltration, macrophages", "type": "in vivo, female Balb/c mice", "settings": "for Percent inhibition in macrophage infiltration: intranasal, day 1 to day 4", "method": "Animals were acclimatized for seven days prior to the start of the experiment. The animals were randomly distributed to various groups based on their body weight. For oral administration of roflumilast and for intranasal administration of roflumilast N-oxide, roflumilast or roflumilast N-oxide were prepared as a suspension in a suitable vehicle. On day 1, mice were administered roflumilast N-oxide or roflumilast and after 1 hour, the animals were placed in a whole body exposure box. On day 1 and day 2, the mice were exposed to the mainstream smoke of 6 cigarettes, and 8 cigarettes on day 3 and day 4. Exposure to the smoke of each cigarette lasted for 10 minutes (cigarettes were completely burned in the first two minutes and followed by an air flow with animal ventilator, then 20 minutes exposure to fresh room air). After every second cigarette an additional break of 20 minutes with exposure to fresh room air was conducted. Control animals were exposed to room air chamber. From day 1 to day 4, the animals were administered roflumilast N-oxide or roflumilast. On day 5, 24 hours after the last cigarette smoke (CS) exposure, the animals were exsanguinated under anaesthesia, the trachea were cannulated and the lungs were lavaged with 0.5-ml aliquots of heparinised PBS (1 unit/ml) four times through tracheal cannula (total volume 2 ml). Bronchioalveolar (BAL) collected was stored at 2-8° C. until assayed for total cell and differential leukocyte count. BAL fluid was centrifuged (500×g for 10 minutes) and the resulting cell pellet was resuspended in 0.5 ml of heparinised saline. The total number of white blood cells was determined in BAL fluid and adjusted to 1×10^6 cell/ml. Differential cell count was calculated manually by diff-quick staining. Forty microliters of the cell suspension was centrifuged using cytospin 3 to prepare a cell smear. The cell smear was stained with a blood staining solution for differentiation and microscopically observed to identify cell type according to their morphological characteristics. The number of each cell type among 300 white blood cells in the cell smear were determined and expressed as a percentage, and the number of neutrophils and macrophages in each BAL fluid were calculated.\nRoflumilast and roflumilast N-oxide as a suspension in polysorbate 80 (1% v/v) and methyl cellulose (MC) (0.5% w/v) were used for oral and intranasal administration respectively."}, "[1]": {"test": "Lung microsome metabolic stability, rat", "type": "in vitro ADME", "settings": "rat lung microsomes, 1 μM test item, 60 minutes, NADPH", "method": "Metabolic stability studies were conducted using rat, dog and human lung microsomes. The protocol for the studies with rat, dog, and human lung microsomes (from Xenotech, USA) is provided below.\n0.4 mg protein was preincubated with 2 mM NADPH (cofactor) in phosphate buffer (pH˜7.4) for 15 minutes at […] and then added with 1 μM test item and incubated further for 60 minutes in triplicate. The reaction mixture was terminated with methanol containing an internal standard and centrifuged further to analyze the test item remaining in the supernatant by LC-MS/MS. The percent parent compound remaining was calculated in comparison with similar samples terminated at 0 minutes."}, "[2]": {"test": "Pulmonary kinetics by intratracheal route, multiple dose (7 days)", "type": "in vivo, Wistar rats", "settings": "1 mg/kg IT for 7 days; for Tmax / half-life / AUC(0-inf) / AUC(0-t) / Cmax: 1 mg/kg", "method": "Male and female Wistar rats were weighed and randomized for groups for various time points. Roflumilast N-oxide was prepared as a suspension in a suitable vehicle for intratracheal administration. For intratracheal dosing, animals were anesthetized with ketamine (50 mg/kg; i.p.) and roflumilast N-oxide was administered via an Intratracheal Microsprayer® Aerosolizer for Rat with a 0.5 ml glass syringe (Model IA-1B-R-GL500) (Penn Century, US). A volume level of 0.5 ml/kg was administered into the airway system of the rat at a dose of 1.0 mg/kg for the single dose and multiple dose study. The animals were kept under normal regular diet conditions and rat chew diet was provided ad libitum throughout the study. The blood and lung samples (all collections each of 150 μl from each animal) were collected according to the sampling schedule. Blood samples were collected from orbital sinus into the microfuge tubes containing dipotassium EDTA as an anticoagulant. Blood samples were centrifuged immediately with a speed of 1000 g for 10 minutes at 4° C. and separated plasma samples were frozen at below −80° C. and stored until analysis. The plasma and lung concentrations of roflumilast N-oxide in all samples were analyzed by LC-MS/MS (using X-Calibur 2.0.7 software) as per the established method. The samples below the lower limit of quantification (LOQ) were mentioned as (BLQ) below level of quantification in raw data and the results were tabulated accordingly. Pharmacokinetic parameters Cmax, AUC0-t, AUC0-∞, Tmax, t1/2, Kel, VZ, and CLZ were estimated for the above concentrations using WinNonlin (Phoenix 6.1 software) and the results were tabulated. Pharmacokinetic parameters in plasma were calculated from concentration data as ng/ml. Cmax and AUC values were reported in terms of ng/ml and ng·h/ml, respectively.\nPharmacokinetic parameters in the lungs were calculated from concentration data as ng/g. Cmax and AUC values were reported in terms of ng/g and ng·h/g, respectively. The lung to plasma concentration ratio was calculated by assuming equal to 1 the plasma density. The time-mean plasma concentration plots for roflumilast N-oxide were done using Graph pad Prism 5.02 software."}}, "note": "Like-named read-outs stand apart in the source and are kept apart here."}
{"smiles": "O=C(Nc1c(Cl)c[n+]([O-])cc1Cl)c1ccc(OC(F)F)c(OCC2CC2)c1", "note": "[Roflumilast N-oxide]", "values": [{"measurement": "ED50", "setting": "macrophage infiltration; Mus musculus, Macrophage, inhaled or nasal, intranasal administration, read-out: 50% inhibition (ED50) dose, macrophage infiltration", "value": 0.049, "unit": "mg/kg"}, {"measurement": "Percent inhibition in macrophage infiltration", "setting": "macrophage infiltration; 0.003 mg/kg", "value": 50.68, "unit": "%"}, {"measurement": "Percent inhibition in macrophage infiltration", "setting": "macrophage infiltration; 0.03 mg/kg", "value": 55.10, "unit": "%"}, {"measurement": "Percent inhibition in macrophage infiltration", "setting": "macrophage infiltration; 0.3 mg/kg", "value": 62.79, "unit": "%"}, {"measurement": "Percent inhibition in macrophage infiltration", "setting": "macrophage infiltration; 3 mg/kg", "value": 63.35, "unit": "%"}, {"measurement": "Percent Parent Compound Remaining, Rat", "setting": "[1]", "value": 100.0, "unit": "%"}, {"measurement": "AUC0-inf, Lung, Day-1, N-Oxide", "setting": "[2]; lung, Day-1", "value": 47.96, "unit": "µg·h/g"}, {"measurement": "AUC0-t, Lung, Day-1, N-Oxide", "setting": "[2]; lung, Day-1", "value": 47.88, "unit": "µg·h/g"}, {"measurement": "Cmax, Lung, Day-1, N-Oxide", "setting": "[2]; lung, Day-1", "value": 26.35, "unit": "µg/g"}, {"measurement": "AUC0-inf, Lung, Day-7, N-Oxide", "setting": "[2]; lung, Day-7", "value": 18.04, "unit": "µg·h/g"}, {"measurement": "AUC0-t, Lung, Day-7, N-Oxide", "setting": "[2]; lung, Day-7", "value": 17.96, "unit": "µg·h/g"}, {"measurement": "AUCtau, Lung, Day-7, N-Oxide", "setting": "[2]; lung, Day-7", "value": 18.51, "unit": "µg·h/g"}, {"measurement": "Cavg, Lung, Day-7, N-Oxide", "setting": "[2]; lung, Day-7", "value": 0.77, "unit": "µg/g"}, {"measurement": "Cmax, Lung, Day-7, N-Oxide", "setting": "[2]; lung, Day-7", "value": 23.15, "unit": "µg/g"}, {"measurement": "Cmin, Lung, Day-7, N-Oxide", "setting": "[2]; lung, Day-7", "value": 0.00, "unit": "µg/g"}, {"measurement": "Cavg, Plasma, Day-7, N-Oxide", "setting": "[2]; plasma, Day-7", "value": 120, "unit": "ng/mL"}, {"measurement": "Cmin, Plasma, Day-7, N-Oxide", "setting": "[2]; plasma, Day-7", "value": 0, "unit": "ng/mL"}, {"measurement": "AUC", "setting": "[2]; both sexes, Wistar, rat, inhaled or intranasal, plasma, Day-7, read-out: AUCtau, Plasma, Day-7, N-Oxide", "value": 2810, "unit": "ng·h/mL"}, {"measurement": "Tmax", "setting": "[2]; both sexes, Wistar, rat, lung, inhaled or intranasal, lung, Day-1, read-out: Tmax, Lung, Day-1, N-Oxide", "value": 15, "unit": "min"}, {"measurement": "half-life", "setting": "[2]; both sexes, Wistar, rat, lung, inhaled or intranasal, lung, Day-1, read-out: t1/2, Lung, Day-1, N-Oxide (converted)", "value": 152, "unit": "min"}, {"measurement": "Tmax", "setting": "[2]; both sexes, Wistar, rat, lung, inhaled or intranasal, lung, Day-7, read-out: Tmax, Lung, Day-7, N-Oxide", "value": 15, "unit": "min"}, {"measurement": "half-life", "setting": "[2]; both sexes, Wistar, rat, lung, inhaled or intranasal, lung, Day-7, read-out: t1/2, Lung, Day-7, N-Oxide (converted)", "value": 48.6, "unit": "min"}, {"measurement": "AUC(0-inf)", "setting": "[2]; both sexes, Wistar, rat, plasma, inhaled or intranasal, plasma, Day-1, read-out: AUC0-inf, Plasma, Day-1, N-Oxide", "value": 4350, "unit": "ng·h/mL"}, {"measurement": "AUC(0-t)", "setting": "[2]; both sexes, Wistar, rat, plasma, inhaled or intranasal, plasma, Day-1, read-out: AUC0-t, Plasma, Day-1, N-Oxide", "value": 4160, "unit": "ng·h/mL"}, {"measurement": "Cmax", "setting": "[2]; both sexes, Wistar, rat, plasma, inhaled or intranasal, plasma, Day-1, read-out: Cmax, Plasma, Day-1, N-Oxide", "value": 530, "unit": "ng/mL"}, {"measurement": "Tmax", "setting": "[2]; both sexes, Wistar, rat, plasma, inhaled or intranasal, plasma, Day-1, read-out: Tmax, Plasma, Day-1, N-Oxide", "value": 15, "unit": "min"}, {"measurement": "half-life", "setting": "[2]; both sexes, Wistar, rat, plasma, inhaled or intranasal, plasma, Day-1, read-out: t1/2, Plasma, Day-1, N-Oxide (converted)", "value": 326, "unit": "min"}, {"measurement": "AUC(0-inf)", "setting": "[2]; both sexes, Wistar, rat, plasma, inhaled or intranasal, plasma, Day-7, read-out: AUC0-inf, Plasma, Day-7, N-Oxide", "value": 2390, "unit": "ng·h/mL"}, {"measurement": "AUC(0-t)", "setting": "[2]; both sexes, Wistar, rat, plasma, inhaled or intranasal, plasma, Day-7, read-out: AUC0-t, Plasma, Day-7, N-Oxide", "value": 2250, "unit": "ng·h/mL"}, {"measurement": "Cmax", "setting": "[2]; both sexes, Wistar, rat, plasma, inhaled or intranasal, plasma, Day-7, read-out: Cmax, Plasma, Day-7, N-Oxide", "value": 560, "unit": "ng/mL"}, {"measurement": "Tmax", "setting": "[2]; both sexes, Wistar, rat, plasma, inhaled or intranasal, plasma, Day-7, read-out: Tmax, Plasma, Day-7, N-Oxide", "value": 60, "unit": "min"}, {"measurement": "half-life", "setting": "[2]; both sexes, Wistar, rat, plasma, inhaled or intranasal, plasma, Day-7, read-out: t1/2, Plasma, Day-7, N-Oxide (converted)", "value": 91.8, "unit": "min"}]}
